We go through 16 compounds from ChEMBL document CHEMBL1201862, “PubChem BioAssay data set” (2004).

Assay [1] is described as follows: intracellular Trypanosoma cruzi inhibitors in host cells – cell-based, plate reader, cherry-pick samples, set 3, dose response (AID 651818).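 Further: compounds incubated with infected cells for about four days.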 The assay is classed as functional.
Assay [2] is described as follows: inhibitors of HIV Env-driven cell fusion, dose response, cherry-pick (AID 652057). The assay is classed as functional, cell-based.
Assay [3] is described as follows: inhibitors of clade B AD8 Env fusion, dose response, cell-based, cherry-pick (AID 652062).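 Further: luciferase signal from cell-cell fusion driven by HIV-1 clade B AD8 Env; potency is for inhibitors of fusion seen as a drop in luminescence.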 The class given is functional.
For assay [4], the target named is Nuclear receptor subfamily 5 group A member 2 (Homo sapiens, UniProt O00482). The class given is functional, cell-based.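 Further: HEK293T cells transfected with LRH-1 and a StAR promoter luciferase reporter; potency for inhibitors that lower LRH-1 driven reporter light.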
Nuclear receptor subfamily 5 group A member 2, sequence (O00482 whole entry): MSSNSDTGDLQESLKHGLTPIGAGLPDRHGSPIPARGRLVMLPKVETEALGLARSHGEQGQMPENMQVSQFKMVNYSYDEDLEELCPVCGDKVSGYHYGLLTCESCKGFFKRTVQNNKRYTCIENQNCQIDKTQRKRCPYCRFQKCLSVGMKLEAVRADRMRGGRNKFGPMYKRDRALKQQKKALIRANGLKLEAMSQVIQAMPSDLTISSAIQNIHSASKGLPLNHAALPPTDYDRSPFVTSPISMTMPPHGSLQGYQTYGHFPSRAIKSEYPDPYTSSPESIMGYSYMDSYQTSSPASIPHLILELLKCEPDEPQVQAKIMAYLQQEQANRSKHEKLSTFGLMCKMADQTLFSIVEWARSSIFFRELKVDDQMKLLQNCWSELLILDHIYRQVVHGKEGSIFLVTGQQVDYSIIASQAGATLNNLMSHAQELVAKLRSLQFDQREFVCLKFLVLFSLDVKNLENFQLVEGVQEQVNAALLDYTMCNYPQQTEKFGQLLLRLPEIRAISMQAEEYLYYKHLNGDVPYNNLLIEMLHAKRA
A further assay has as its target Steroidogenic factor 1 (Homo sapiens, UniProt Q13285). The experiment in a line: Counterscreen for inverse agonists of the liver receptor homolog-1 (LRH-1; NR5A2): Luminescence-based cell-based high throughput dose response assay to identify inverse agonists of the Steroidogenic Factor 1 Nuclear Receptor (SF1; NR5A1). The assay is classed as functional. On the technique in general: Counterscreens check selectivity or assay interference.

Assay [5] is described as follows: StAR promoter reporter inhibition counter-screen, dose response, counter-screen for LRH-1 inverse agonist project, cell-based, luminescence, luciferase reporter (AID 651969). The assay is classed as functional.
Another assay addresses T1, Caspase-3 (Homo sapiens, UniProt P42574).
T1 sequence (P42574 whole entry): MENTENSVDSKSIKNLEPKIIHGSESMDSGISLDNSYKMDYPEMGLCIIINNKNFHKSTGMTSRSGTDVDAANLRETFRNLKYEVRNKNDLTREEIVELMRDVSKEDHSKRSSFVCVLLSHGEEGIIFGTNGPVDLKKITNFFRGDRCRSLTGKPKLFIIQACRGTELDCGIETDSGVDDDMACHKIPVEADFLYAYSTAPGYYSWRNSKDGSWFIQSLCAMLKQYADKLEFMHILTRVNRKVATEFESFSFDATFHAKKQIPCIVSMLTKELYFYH
The assay is classed as functional.

The target in assay [6] is T2, Sentrin-specific protease 7 (Homo sapiens, UniProt Q9BQF6).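 Further: Luminescence-based dose-response confirmation of ultra-high-throughput screening hits, measuring inhibition of SENP7.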
T2 sequence (Q9BQF6 whole entry): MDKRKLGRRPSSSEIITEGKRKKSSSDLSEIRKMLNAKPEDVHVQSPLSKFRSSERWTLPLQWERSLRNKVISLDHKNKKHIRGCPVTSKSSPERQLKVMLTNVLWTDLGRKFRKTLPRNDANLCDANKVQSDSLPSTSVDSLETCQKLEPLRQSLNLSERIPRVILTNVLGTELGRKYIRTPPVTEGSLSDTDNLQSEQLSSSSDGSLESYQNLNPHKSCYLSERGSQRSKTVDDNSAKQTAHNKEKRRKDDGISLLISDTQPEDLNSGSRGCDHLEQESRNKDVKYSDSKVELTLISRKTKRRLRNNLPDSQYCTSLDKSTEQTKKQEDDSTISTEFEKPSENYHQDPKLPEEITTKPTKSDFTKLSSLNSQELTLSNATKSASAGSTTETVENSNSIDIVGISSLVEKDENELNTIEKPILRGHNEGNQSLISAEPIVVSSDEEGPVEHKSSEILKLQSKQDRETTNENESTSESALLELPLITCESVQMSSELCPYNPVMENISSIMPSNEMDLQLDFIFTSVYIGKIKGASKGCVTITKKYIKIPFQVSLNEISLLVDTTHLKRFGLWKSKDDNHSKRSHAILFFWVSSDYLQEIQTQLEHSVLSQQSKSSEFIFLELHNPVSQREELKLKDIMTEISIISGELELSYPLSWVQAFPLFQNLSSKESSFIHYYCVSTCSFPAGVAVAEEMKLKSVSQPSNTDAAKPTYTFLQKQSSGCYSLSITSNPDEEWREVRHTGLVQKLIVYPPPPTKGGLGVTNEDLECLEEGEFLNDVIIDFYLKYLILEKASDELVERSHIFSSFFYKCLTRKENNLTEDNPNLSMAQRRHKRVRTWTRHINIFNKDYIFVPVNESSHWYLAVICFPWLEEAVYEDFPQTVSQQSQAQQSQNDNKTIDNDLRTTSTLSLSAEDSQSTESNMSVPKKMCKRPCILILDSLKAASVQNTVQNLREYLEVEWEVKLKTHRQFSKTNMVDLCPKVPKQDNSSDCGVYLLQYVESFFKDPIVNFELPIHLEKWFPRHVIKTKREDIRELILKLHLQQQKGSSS
The class given is functional.

Assay [7] has as its target T3, Sentrin-specific protease 6 (Homo sapiens, UniProt Q9GZR1).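 Further: Luminescence-based dose-response confirmatory assay of SENP6 inhibition, following up an ultra-high-throughput screen.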
T3 sequence (Q9GZR1 whole entry): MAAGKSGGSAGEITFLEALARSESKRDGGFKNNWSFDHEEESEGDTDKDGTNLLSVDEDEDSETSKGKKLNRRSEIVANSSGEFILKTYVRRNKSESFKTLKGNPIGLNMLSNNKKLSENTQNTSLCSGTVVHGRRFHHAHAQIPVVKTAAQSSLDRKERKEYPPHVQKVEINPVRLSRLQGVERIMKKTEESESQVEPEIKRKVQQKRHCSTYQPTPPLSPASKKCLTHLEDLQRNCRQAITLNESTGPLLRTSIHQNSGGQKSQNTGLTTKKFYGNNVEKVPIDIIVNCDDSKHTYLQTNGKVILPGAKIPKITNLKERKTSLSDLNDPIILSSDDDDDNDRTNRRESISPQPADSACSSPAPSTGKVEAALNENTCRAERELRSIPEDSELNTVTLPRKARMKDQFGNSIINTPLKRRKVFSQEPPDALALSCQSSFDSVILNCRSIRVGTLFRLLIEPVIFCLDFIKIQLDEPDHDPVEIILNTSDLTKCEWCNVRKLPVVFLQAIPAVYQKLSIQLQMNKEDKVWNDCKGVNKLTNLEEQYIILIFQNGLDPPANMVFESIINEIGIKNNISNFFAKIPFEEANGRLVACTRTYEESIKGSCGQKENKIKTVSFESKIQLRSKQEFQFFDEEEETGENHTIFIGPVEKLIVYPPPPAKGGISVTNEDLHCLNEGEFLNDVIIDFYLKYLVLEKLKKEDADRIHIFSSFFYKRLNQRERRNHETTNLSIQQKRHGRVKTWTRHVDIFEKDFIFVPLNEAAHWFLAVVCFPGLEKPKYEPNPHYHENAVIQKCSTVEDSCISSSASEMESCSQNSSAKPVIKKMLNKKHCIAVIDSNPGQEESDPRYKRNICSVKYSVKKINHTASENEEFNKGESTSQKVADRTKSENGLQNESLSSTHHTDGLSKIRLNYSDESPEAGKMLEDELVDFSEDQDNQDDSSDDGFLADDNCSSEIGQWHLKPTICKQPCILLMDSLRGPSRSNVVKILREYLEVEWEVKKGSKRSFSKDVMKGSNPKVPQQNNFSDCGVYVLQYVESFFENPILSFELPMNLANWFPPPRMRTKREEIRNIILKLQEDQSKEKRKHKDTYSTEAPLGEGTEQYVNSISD
The class given is functional.

The target of assay [8] is T4, Sentrin-specific protease 8 (Homo sapiens, UniProt Q96LD8).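 Further: luminescence read-out of SENP8 inhibition, dose-response confirmation following an ultra-high-throughput screen.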
T4 sequence (Q96LD8 whole entry): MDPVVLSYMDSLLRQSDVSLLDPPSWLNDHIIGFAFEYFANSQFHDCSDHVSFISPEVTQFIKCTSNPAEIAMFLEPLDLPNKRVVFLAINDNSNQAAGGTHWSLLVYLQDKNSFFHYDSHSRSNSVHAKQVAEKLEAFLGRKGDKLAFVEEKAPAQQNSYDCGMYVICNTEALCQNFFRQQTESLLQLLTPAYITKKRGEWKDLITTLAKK
The assay is classed as functional.

Assay [9] has as its target T5, Polyadenylate-binding protein 1 (Homo sapiens, UniProt P11940). Description: PABP1 MLLE–PAM2 interaction inhibitors, dose response, miRNA deadenylation inhibitor project, biochemical, fluorescence polarization, Cy5-PAM2 peptide, secondary (AID 602260). The assay is classed as functional. The conditions noted are these: read-out: IC50_Mean. (In general: Polarisation of emitted light reports the rotation of a fluorescent probe.)

The target of assay [10] is T5, Polyadenylate-binding protein 1. The experiment in a line: PABP1 MLLE–PAM2 binding inhibitor potency, dose response, biochemical, fluorescence polarization, FITC-PAM2 peptide (AID 602259). The assay is classed as functional. To be noted: read-out: IC50_Mean.
In assay [11] the test system is Streptococcus sp. 'group A'. The experiment in a line: growth inhibition of control SK(-) GAS strain, dose response, counter-screen for streptokinase expression inhibitor project, luminescence, kanamycin, BacTiterGlo, confirmation (AID 1900). The class given is functional, organism-based.
For another assay, the system named is Streptococcus. Description: Group A Streptococcus viability loss, dose response, counter-screen for streptokinase expression inhibitor project, luminescence, BacTiterGlo (AID 1915).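 Further: potency for reduction of bacterial viability or growth.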 The class given is functional, organism-based.
Assay [12] has as its target T6, Calpain-2 catalytic subunit (Sus scrofa, UniProt P43367).
T6 sequence (P43367 whole entry): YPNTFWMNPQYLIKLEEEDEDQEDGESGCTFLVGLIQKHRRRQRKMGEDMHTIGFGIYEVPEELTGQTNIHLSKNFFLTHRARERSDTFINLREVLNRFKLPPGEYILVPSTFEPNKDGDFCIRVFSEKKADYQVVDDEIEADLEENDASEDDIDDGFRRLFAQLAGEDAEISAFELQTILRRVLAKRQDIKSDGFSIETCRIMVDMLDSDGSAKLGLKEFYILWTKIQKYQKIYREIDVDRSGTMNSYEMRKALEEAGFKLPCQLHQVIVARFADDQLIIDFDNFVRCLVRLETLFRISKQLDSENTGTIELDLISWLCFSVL
The experiment in a line: pig calpain II inhibitor potency, dose response, biochemical, fluorogenic peptide substrate (AID 1420). The assay is classed as functional.

Assay [13] in a line: ZM109 Env clade C HIV-1 fusion inhibitors, dose response, HeLa effector, CEM target cells, luciferase, cherry-pick (AID 652058). The assay is classed as functional, cell-based.

Activity calls are given as the source filed them.

Steroidogenic factor 1, sequence (Q13285 whole entry): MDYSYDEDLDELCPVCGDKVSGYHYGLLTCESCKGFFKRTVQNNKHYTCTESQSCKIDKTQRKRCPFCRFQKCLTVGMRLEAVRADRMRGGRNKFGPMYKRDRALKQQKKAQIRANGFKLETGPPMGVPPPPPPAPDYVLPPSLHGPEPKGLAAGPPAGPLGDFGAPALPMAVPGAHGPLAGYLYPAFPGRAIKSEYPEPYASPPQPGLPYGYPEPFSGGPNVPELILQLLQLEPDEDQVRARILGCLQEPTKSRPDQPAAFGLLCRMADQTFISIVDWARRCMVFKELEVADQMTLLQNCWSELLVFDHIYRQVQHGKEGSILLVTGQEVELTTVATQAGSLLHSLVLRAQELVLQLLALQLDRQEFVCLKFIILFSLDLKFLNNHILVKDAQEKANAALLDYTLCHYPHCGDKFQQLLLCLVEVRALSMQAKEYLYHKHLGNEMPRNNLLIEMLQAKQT
T5 sequence (P11940 whole entry): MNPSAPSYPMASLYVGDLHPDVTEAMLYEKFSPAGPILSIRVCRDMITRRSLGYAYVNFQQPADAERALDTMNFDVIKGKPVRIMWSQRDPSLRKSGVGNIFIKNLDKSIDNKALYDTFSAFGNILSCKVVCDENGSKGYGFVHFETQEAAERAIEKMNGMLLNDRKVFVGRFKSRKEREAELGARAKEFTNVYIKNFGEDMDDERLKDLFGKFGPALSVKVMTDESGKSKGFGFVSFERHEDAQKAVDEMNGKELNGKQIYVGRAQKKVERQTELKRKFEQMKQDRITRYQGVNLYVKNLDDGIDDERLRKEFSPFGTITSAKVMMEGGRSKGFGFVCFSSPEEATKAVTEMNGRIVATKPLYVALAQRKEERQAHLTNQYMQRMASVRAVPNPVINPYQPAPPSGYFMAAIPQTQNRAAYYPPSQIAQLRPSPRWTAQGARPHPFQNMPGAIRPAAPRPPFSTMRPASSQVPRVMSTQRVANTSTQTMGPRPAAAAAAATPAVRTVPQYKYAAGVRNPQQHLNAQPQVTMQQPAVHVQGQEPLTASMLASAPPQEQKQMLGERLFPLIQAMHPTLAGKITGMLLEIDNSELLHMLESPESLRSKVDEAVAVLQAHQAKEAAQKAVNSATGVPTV

In the case of `C[C@H](CO)N1C[C@H](C)[C@@H](CN(C)CC2CCCCC2)Oc2c(NC(=O)c3nc4ccccc4s3)cccc2C1=O`, in [1], the AC50 was 1.21 µM (active).

Turning to `COc1cccc(S(=O)(=O)N(C)C[C@H]2Oc3cc(C#CCC(C)C)ccc3S(=O)(=O)N([C@H](C)CO)C[C@H]2C)c1`, the AC50 in assay [2] was 34.5 µM (active); in assay [3] it was 17.9 µM (active).

As for `Cc1ccc(-n2nnnc2-c2cnn(-c3ccc(F)cc3)c2C(F)(F)F)cc1`, the AC50 in assay [3] is 33.9 µM (active).

Take `COc1ccc(CCNC(=O)CSc2nn3c(=O)c(C)nnc3s2)cc1OC`: the figures for the IC50 (in assay [4]; on Steroidogenic factor 1; in assay [5]) were 35.9 µM (inactive), 12 µM (inactive) and 35.9 µM (inactive), respectively.

`C[C@@H]1CN([C@H](C)CO)C(=O)c2cccc(N(C)C)c2O[C@H]1CN(C)Cc1ccc(Oc2ccccc2)cc1`: the AC50 in [1] is 2.51 µM (active).

Turning to `COc1cccc(-c2nc(=S)c3c(o2)CCCC3)c1`, the IC50 on Caspase-3 was 24.9 µM (active); in [6], 8.32 µM (active); in [7] it was 20.5 µM (active); in assay [8] it was 27.4 µM (active); in assay [9], > 66 µM (inactive); in assay [10] it was > 66 µM (inactive).

With `CCCOc1ccc(NC(=O)CC2C(=O)N(C)C(=S)N2Cc2ccc3c(c2)OCO3)cc1` (stereo not drawn), the figures for the IC50 (in assay [4]; on Steroidogenic factor 1; in assay [5]) were 1.67 µM (active), 2.03 µM (active) and 35.9 µM (inactive), respectively.

Take `C[C@H](CO)N1C[C@H](C)[C@H](CN(C)Cc2ccc(C(=O)Nc3ccccc3N)cc2)Oc2ccc(NC(=O)Nc3ccc4c(c3)OCO4)cc2CC1=O`: the AC50 in assay [1] is 2.08 µM (active).

In the case of `COc1ccc(CCNC(=O)CN2C(=O)NC3(CCCCC3C)C2=O)cc1` (stereo not drawn), the IC50 in [4] was 1.31 µM (active); at Steroidogenic factor 1, 4.78 µM (active); in assay [5], 35.9 µM (inactive).

`C#CCN1C(=O)S/C(=C\c2ccc(-c3ccc(Cl)c(C(=O)O)c3)o2)C1=O`: the EC50 is 2.41 µM (active) in assay [11] and 5.9 µM (active) in the assay on Streptococcus. Moreover, the IC50 on Caspase-3 is 29.6 µM (active); in [6], 7.59 µM (active); in assay [7] it was 11.6 µM (active); in assay [8] it was 14.9 µM (active).

Consider `Cc1cc(C(=O)Nc2ccc(N3CCCC3)c(Cl)c2)ccc1[N+](=O)[O-]`, for which the IC50 in assay [12] was 2.99 µM (not active); on Caspase-3 it was 28.2 µM (active); in [6] it was 5.48 µM (active); in assay [7], > 100 µM (inactive); in assay [8], > 100 µM (inactive).

For `CC(C)Oc1cccc(-c2cc(C(=O)NN3CCOCC3)c3ccccc3n2)c1`, the IC50 in assay [4] is 35.9 µM (inactive); at Steroidogenic factor 1, 15.9 µM (inactive); in [5], 35.9 µM (inactive).

Consider `Cc1ccc(S(=O)(=O)Nc2cccc3c2O[C@H](CN(C)Cc2ccc(Cl)c(Cl)c2)[C@H](C)CN([C@H](C)CO)C3=O)cc1`, for which the AC50 is < 0.26 µM (active) in assay [2], 0.308 µM (active) in assay [13] and 1.37 µM (active) in assay [3].

As for `COc1ccc(NC(=O)Nc2ccc3c(c2)C(=O)N([C@H](C)CO)C[C@H](C)[C@H](CN(C)Cc2ccc(Cl)c(Cl)c2)OCCCC[C@@H](C)O3)cc1`, the AC50 in assay [1] was 7.11 µM (active).

Consider `C[C@@H]1CCCCO[C@@H](CN(C)CC2CCCCC2)[C@@H](C)CN([C@H](C)CO)C(=O)c2cc(NC(=O)Nc3ccccc3)ccc2O1`, for which the AC50 in assay [1] is 2.55 µM (active).

As to `O=C(COC(=O)CCN1C(=O)C2CC=CCC2C1=O)NCCc1ccccc1` (stereo not drawn), the figures for the IC50 (in assay [4]; on Steroidogenic factor 1; in assay [5]) were 38 µM (inactive), 25.8 µM (inactive) and 35.9 µM (inactive), respectively.

The term AC50 denotes the concentration at which the activity in the assay is half-maximal. A word on the EC50: it is the concentration needed to bring the measured effect to its halfway point.
